Results published in patent US10208030B2, “GPR119 agonist compounds” (Mankind Pharma Ltd., priority 2016, dated 2019).

Tests used:
[1] = target: T1, hGPR119 (Homo sapiens, UniProt Q8TDV5); assay: In vitro cyclic AMP assay (Cisbio HTRF) in CHO-hGPR119 cells; assay type: cell-based; details: cAMP; for activation at 1 µM: 1 h, 60 min, read-out: Induction (% induction at 1 μM); for EC50: class symbols, legend not given
T1 construct: expressed in transfected cells; host or cells: CHO cells (CHO-hGPR119)
T1 sequence (Q8TDV5 1-335): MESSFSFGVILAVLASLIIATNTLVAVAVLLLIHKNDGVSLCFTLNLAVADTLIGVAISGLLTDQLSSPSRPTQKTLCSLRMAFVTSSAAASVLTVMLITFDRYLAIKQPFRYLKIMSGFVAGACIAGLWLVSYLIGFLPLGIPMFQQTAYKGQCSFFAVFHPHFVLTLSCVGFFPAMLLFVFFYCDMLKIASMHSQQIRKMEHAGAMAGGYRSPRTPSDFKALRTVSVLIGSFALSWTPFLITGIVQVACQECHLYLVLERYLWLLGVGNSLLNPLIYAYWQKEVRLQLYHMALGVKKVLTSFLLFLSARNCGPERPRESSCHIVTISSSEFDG
Method in brief: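 Cells plated at 5000/well and exposed to test compound dose series for 60 min at room temperature with 1 mM IBMX and 0.5% DMSO (final). Lysis with anti-cAMP antibody/d2-cAMP detection reagents, 1 h at room temperature; HTRF read at 665/620 nm (337 nm excitation); EC50 from concentration-response.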

[2] = system: Male C57BL/6 mice; assay: Oral glucose tolerance test in C57BL/6 mice; assay type: in vivo; details: 3 mpk and 10 mpk oral
Procedure: (§1) Male C57BL/6 mice (8-10 weeks) were grouped based on basal glucose levels and animals were fasted for 16 hours. Glucose level of each animal was estimated in blood collected from tail vein before animals were dosed orally with 0.5% Tween 80 and 0.5% NaCMC (vehicle control) and compounds at 3 and 10 mpk (n=5). After 30 minutes of compound dosing, blood glucose was again estimated and 2 g/kg/10 ml (20%) of Glucose solution was administered orally to all the animals. Blood glucose was estimated at 15, 30, 60, 90 and 120 minutes time points after glucose administration. Accu-Check active blood glucose meter was utilised for estimation of blood from tail vein.
Glucose reduction observed in animals treated with compounds of present invention is represented in terms of % AUC reduction. A greater glucose reduction in oral glucose tolerance test indicates the compound's efficacy in this rodent species.

[3] = system: Male SD rats; assay: Oral glucose tolerance test in Sprague-Dawley rats; assay type: in vivo; details: 3 mpk and 10 mpk oral
Procedure: as §1, with “SD rats” for “C57BL/6 mice”
Glucose reduction observed in animals treated with GPR119 agonists is represented in terms of % AUC reduction. A greater glucose reduction in oral glucose tolerance test indicates the compound's efficacy in this rodent species.

Compound | activation at 1 µM [1] [%] | EC50 [1] | glucose reduction (% AUC reduction) in oral glucose tolerance test [2] | glucose reduction (% AUC reduction) in oral glucose tolerance test [3]
CCCc1cnc(N2CCC(C(C)Oc3nn4cc(-c5ccc(S(C)(=O)=O)nc5)nc4s3)CC2)nc1 (stereo in doubt) [Compound 1081, 2-((S)-1-(1-(5-propylpyrimidin-2-yl)piperidin-4-yl)ethoxy)-6-(6-(methylsulfonyl)pyridin-3-yl)imidazo[2,1-b][1,3,4]thiadiazole] | 66 | A++ | significant dose dependent glucose reduction | 
CC(C)c1noc(N2CCC([C@@H](C)Oc3nn4cc(-c5ccncc5)nc4s3)CC2)n1 [Compound 1059, (R)-3-isopropyl-5-(4-(1-((6-(pyridin-4-yl)imidazo[2,1-b][1,3,4]thiadiazol-2-yl)oxy)ethyl)piperidin-1-yl)-1,2,4-oxadiazole] | 68 | A++ | significant dose dependent glucose reduction | significant dose dependent glucose reduction
CC(Oc1nn2cc(-c3ccc(S(C)(=O)=O)cc3F)nc2s1)C1CCN(c2ncc(Cl)cn2)CC1 (stereo in doubt) [Compound 1090, 2-((S)-1-(1-(5-chloropyrimidin-2-yl)piperidin-4-yl)ethoxy)-6-(2-fluoro-4-(methylsulfonyl)phenyl)imidazo[2,1-b][1,3,4]thiadiazole] | 76 | A++ | significant dose dependent glucose reduction | significant dose dependent glucose reduction
CC(C)c1noc(N2CCC(C(C)Oc3nn4cc(-c5ccc(S(C)(=O)=O)cc5C(F)(F)F)nc4s3)CC2)n1 (stereo not shown) [Compound 1091, 2-(1-(1-(3-isopropyl-1,2,4-oxadiazol-5-yl)piperidin-4-yl)ethoxy)-6-(2-(trifluoromethyl)-4-(methylsulfonyl)phenyl)imidazo[2,1-b][1,3,4]thiadiazole] | 33 |  |  | significant dose dependent glucose reduction
CCCc1cnc(N2CCC(C(C)Oc3nn4cc(-c5ccc(C(=O)N(C)C)cc5)nc4s3)CC2)nc1 (stereo not shown) [Compound 1049, N,N-dimethyl-4-(2-(1-(1-(5-propylpyrimidin-2-yl)piperidin-4-yl)ethoxy)imidazo[2,1-b][1,3,4]thiadiazol-6-yl)benzamide] | 55 |  |  | 
CC(C)c1noc(N2CCC(C(C)Oc3nn4cc(-c5ccncc5F)nc4s3)CC2)n1 (stereo in doubt) [Compound 1064, (S)-5-(4-(1-((6-(3-fluoropyridin-4-yl)imidazo[2,1-b][1,3,4]thiadiazol-2-yl)oxy)ethyl)piperidin-1-yl)-3-isopropyl-1,2,4-oxadiazole] | 75 | A++ |  | 
CC(Oc1nn2cc(-c3ccc(S(C)(=O)=O)cc3)nc2s1)C1CCN(c2nc(C(F)(F)F)no2)CC1 (stereo not shown) [Compound 1073, 2-(1-(1-(3-(trifluoromethyl)-1,2,4-oxadiazol-5-yl)piperidin-4-yl)ethoxy)-6-(4-(methylsulfonyl)phenyl)imidazo[2,1-b][1,3,4]thiadiazole] | 33 |  |  | 
C[C@H](Oc1nn2cc(-c3ccc(S(C)(=O)=O)cc3)nc2s1)C1CCN(c2nc(C(F)(F)F)no2)CC1 [Compound 1077, 2-((S)-1-(1-(3-(trifluoromethyl)-1,2,4-oxadiazol-5-yl)piperidin-4-yl)ethoxy)-6-(4-(methylsulfonyl)phenyl)imidazo[2,1-b][1,3,4]thiadiazole] | 33 |  |  | 
CC(C)c1noc(N2CCC(C(C)Oc3nn4cc(-c5ccc(C#N)cc5)nc4s3)CC2)n1 (stereo not shown) [Compound 1047, 4-(2-(1-(1-(3-isopropyl-1,2,4-oxadiazol-5-yl)piperidin-4-yl)ethoxy)imidazo[2,1-b][1,3,4]thiadiazol-6-yl)benzonitrile] | 51 |  |  | 
CC(C)c1noc(N2CCC(C(C)Oc3nn4cc(-c5cnc(S(C)(=O)=O)nc5)nc4s3)CC2)n1 (stereo not shown) [Compound 1074, 2-(1-(1-(3-isopropyl-1,2,4-oxadiazol-5-yl)piperidin-4-yl)ethoxy)-6-(2-(methylsulfonyl)pyrimidin-5-yl)imidazo[2,1-b][1,3,4]thiadiazole] | 44 |  |  | 

Second part, led by results:

activation at 1 µM [1] [%] | EC50 [1] | Compound | glucose reduction (% AUC reduction) in oral glucose tolerance test [2] | glucose reduction (% AUC reduction) in oral glucose tolerance test [3]
84 |  | CC(C)OC(=O)N1CCC(C(C)Oc2nn3cc(-c4ccc(S(C)(=O)=O)cc4F)nc3s2)CC1 (stereo not shown) [Compound 1101, Isopropyl 4-(1-(6-(2-fluoro-4-(methylsulfonyl)phenyl)imidazo[2,1-b][1,3,4]thiadiazol-2-yloxy)ethyl)piperidine-1-carboxylate] | significant dose dependent glucose reduction | significant dose dependent glucose reduction
73 | A++ | CC(C)c1noc(N2CCC([C@@H](C)Oc3nn4cc(-c5ccc(S(C)(=O)=O)cc5F)nc4s3)CC2)n1 [Compound 1088, 2-((R)-1-(1-(3-isopropyl-1,2,4-oxadiazol-5-yl)piperidin-4-yl)ethoxy)-6-(2-fluoro-4-(methylsulfonyl)phenyl)imidazo[2,1-b][1,3,4]thiadiazole] | significant dose dependent glucose reduction | 
72 | A++ | CC(C)c1noc(N2CCC([C@H](C)Oc3nn4cc(-c5cnc(S(C)(=O)=O)nc5)nc4s3)CC2)n1 [Compound 1072, (S)-3-isopropyl-5-(4-(1-((6-(2-(methylsulfonyl)pyrimidin-5-yl)imidazo[2,1-b][1,3,4]thiadiazol-2-yl)oxy)ethyl)piperidin-1-yl)-1,2,4-oxadiazole] | significant dose dependent glucose reduction | significant dose dependent glucose reduction
70 | A++ | CC(C)OC(=O)N1CCC([C@H](C)Oc2nn3cc(-c4ccc(S(C)(=O)=O)cc4F)nc3s2)CC1 [Compound 1108, isopropyl 4-((S)-1-(6-(2-fluoro-4-(methylsulfonyl)phenyl)imidazo[2,1-b][1,3,4]thiadiazol-2-yloxy)ethyl)piperidine-1-carboxylate] | significant dose dependent glucose reduction | significant dose dependent glucose reduction
0 |  | CCc1cnc(N2CCC(Nc3nn4cc(-c5ccc(S(C)(=O)=O)cc5)nc4s3)CC2)nc1 [Compound 1023, N-(1-(5-ethylpyrimidin-2-yl)piperidin-4-yl)-6-(4-(methylsulfonyl)phenyl)imidazo[2,1-b][1,3,4]thiadiazol-2-amine] |  | 
73 |  | CCc1cnc(N2CCC(C(C)Oc3nn4cc(-c5ccncc5)nc4s3)CC2)nc1 (stereo not shown) [Compound 1056, 2-(1-(1-(5-ethylpyrimidin-2-yl)piperidin-4-yl)ethoxy)-6-(pyridin-4-yl)imidazo[2,1-b][1,3,4]thiadiazole] |  | 
2 |  | CC(C)c1noc(N2CCC(COc3nsnc3OCC3CCN(c4nc(C(C)C)no4)CC3)CC2)n1 [Compound 1011, 3,4-bis((1-(3-isopropyl-1,2,4-oxadiazol-5-yl)piperidin-4-yl)methoxy)-1,2,5-thiadiazole] |  | 
9 |  | CC(C)c1noc(N2CCC(N(C)c3nn4cc(-c5ccc(S(C)(=O)=O)cc5)nc4s3)CC2)n1 [Compound 1029, N-(1-(3-isopropyl-1,2,4-oxadiazol-5-yl)piperidin-4-yl)-N-methyl-6-(4-(methylsulfonyl)phenyl)imidazo[2,1-b][1,3,4]thiadiazol-2-amine] |  | 
4 |  | CC(C)c1noc(C2CCN(c3nc(-c4ccc(S(C)(=O)=O)cc4)ns3)CC2)n1 [Compound 1114, 4-(3-isopropyl-1,2,4-oxadiazol-5-yl)-1-(3-(4-(methylsulfonyl)phenyl)-1,2,4-thiadiazol-5-yl)piperidine] |  | 
38 |  | CC(C)OC(=O)N1CCC(c2nn3cc(-c4ccc(S(C)(=O)=O)cc4)nc3s2)CC1 [Compound 1024, isopropyl 4-(6-(4-(methylsulfonyl)phenyl)imidazo[2,1-b][1,3,4]thiadiazol-2-yl)piperidine-1-carboxylate] |  | 
